Values joined by “and” are separate entries in the source; they are usually repeats but may differ in a detail not shown here. Identical values can stand only once.

Ustilago maydis acetyl CoA carboxylase (ACCase), sequence (A0A0D1DYD5 1-2185): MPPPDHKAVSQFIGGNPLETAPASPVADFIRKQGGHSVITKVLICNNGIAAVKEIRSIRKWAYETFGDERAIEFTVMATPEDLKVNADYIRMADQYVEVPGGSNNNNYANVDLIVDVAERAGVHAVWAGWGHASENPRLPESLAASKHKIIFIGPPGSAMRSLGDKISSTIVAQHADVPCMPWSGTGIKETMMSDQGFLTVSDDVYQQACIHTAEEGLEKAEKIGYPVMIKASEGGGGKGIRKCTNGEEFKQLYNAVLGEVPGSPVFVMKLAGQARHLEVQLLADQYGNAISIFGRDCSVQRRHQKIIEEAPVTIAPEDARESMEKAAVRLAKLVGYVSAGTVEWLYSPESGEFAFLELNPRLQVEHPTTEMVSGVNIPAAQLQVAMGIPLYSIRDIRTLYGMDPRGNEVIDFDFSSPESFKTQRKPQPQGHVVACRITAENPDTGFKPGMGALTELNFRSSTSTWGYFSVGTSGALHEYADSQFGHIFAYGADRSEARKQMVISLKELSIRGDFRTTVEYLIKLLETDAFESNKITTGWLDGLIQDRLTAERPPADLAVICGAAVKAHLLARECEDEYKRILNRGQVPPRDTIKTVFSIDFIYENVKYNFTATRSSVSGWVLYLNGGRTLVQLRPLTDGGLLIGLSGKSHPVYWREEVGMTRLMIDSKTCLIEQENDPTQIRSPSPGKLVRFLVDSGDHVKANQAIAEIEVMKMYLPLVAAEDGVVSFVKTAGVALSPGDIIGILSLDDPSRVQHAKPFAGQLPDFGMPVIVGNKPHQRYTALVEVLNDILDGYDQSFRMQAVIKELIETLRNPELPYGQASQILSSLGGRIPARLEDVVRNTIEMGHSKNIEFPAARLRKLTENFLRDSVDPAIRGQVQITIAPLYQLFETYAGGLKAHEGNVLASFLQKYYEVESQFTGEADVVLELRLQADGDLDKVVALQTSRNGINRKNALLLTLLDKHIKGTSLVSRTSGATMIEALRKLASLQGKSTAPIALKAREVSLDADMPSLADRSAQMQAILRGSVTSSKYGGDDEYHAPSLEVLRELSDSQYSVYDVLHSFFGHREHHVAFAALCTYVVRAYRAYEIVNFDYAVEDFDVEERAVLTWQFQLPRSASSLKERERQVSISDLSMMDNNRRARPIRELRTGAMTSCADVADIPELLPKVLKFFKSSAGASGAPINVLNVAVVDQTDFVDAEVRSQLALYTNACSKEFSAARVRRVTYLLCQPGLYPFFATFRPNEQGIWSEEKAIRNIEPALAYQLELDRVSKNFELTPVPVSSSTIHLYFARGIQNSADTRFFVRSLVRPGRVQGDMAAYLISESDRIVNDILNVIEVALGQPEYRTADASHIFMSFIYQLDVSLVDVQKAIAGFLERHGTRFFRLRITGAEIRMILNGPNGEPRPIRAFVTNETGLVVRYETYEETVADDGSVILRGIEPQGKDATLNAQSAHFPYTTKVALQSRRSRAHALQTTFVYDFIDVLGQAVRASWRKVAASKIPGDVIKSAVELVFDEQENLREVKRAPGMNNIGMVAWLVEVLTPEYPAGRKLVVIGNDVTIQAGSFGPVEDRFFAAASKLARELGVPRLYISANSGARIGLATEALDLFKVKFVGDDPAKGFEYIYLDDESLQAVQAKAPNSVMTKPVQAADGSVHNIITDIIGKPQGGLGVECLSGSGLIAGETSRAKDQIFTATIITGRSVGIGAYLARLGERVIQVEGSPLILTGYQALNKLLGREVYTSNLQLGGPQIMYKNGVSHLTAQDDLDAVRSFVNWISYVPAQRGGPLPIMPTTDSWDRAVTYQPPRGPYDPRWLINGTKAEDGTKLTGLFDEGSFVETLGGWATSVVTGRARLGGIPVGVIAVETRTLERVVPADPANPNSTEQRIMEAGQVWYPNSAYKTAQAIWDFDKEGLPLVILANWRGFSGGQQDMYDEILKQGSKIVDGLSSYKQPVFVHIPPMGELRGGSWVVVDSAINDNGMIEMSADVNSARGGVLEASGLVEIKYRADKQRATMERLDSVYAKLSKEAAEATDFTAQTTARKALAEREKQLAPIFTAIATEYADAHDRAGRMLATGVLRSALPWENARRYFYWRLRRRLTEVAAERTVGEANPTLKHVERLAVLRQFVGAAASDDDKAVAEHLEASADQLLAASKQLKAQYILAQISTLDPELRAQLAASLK

One experiment deals with Ustilago maydis acetyl CoA carboxylase (ACCase) (Mycosarcoma maydis (Ustilago maydis), UniProt A0A0D1DYD5). The experiment in a line: ACCase enzymatic assay (coupled PK/LDH, NADH OD340). In kind it is biochemical. To be noted: Table 1A; values marked a are a result of two or more experiments; read-out: ACCase Inhibitory Activity IC50. Here is the method:
Ustilago maydis acetyl CoA carboxylase (ACCase) was cloned, expressed, and purified as described (Weatherly et al, Biochem. J., 2004) and the test compounds were tested in a 96-well plate format. Primary in vitro screening consisted of obtaining dose response data at 100, 33, 10, and 1 μM inhibitor. Actives in the primary screen were re-tested to establish IC50 values.
Direct detection of the conversion of acetyl CoA to malonyl CoA by ACCase was not feasible, but during this process ATP is converted to ADP which allowed for detection through a standard reaction coupling with ADP recycling to the oxidation of NADH. Thus, ACCase activity was measured via kinetic OD340 measurements of the conversion of NADH to NAD in a coupled reaction involving the conversion of phosphoenolpyruvate (PEP) to lactate.
The complete 200 ul reaction mixture contained 52.5 mM HEPES (pH8), 2.625 mM MgCl2, 1 mM ATP, 0.525 mM DTT, 11 mM NaHCO3, 1% DMSO with or without inhibitor, 1× pyruvate kinase/lactate dehydrogenase (PK/LDH), 0.3 mM NADH, 0.5 mM PEP, and 5 μg ACCase. The reactions were incubated at 30° C. for 10 minutes and then initiated by the addition of 0.33 mM acetyl CoA. The initiated reactions were read immediately via plate reader at OD340 and kinetic readings were acquired every 20 s for 15 minutes while keeping the temperature at 30° C.
A slope of the kinetic curve was determined by using the 2 to 7 minute data which was then calculated as percent inhibition relative to the no inhibitor control.
The primary screens were conducted in duplicate and the IC50's conducted in triplicate. Averages were reported along with standard deviation calculation to generate error bars.
Each plate contained its own controls and consisted of a DMSO only control, 5-fold titration series of soraphen from 2 μM to 3.2 nM, and an ADP coupled reaction control.
What is called IC50 is the point on the concentration scale where inhibition reaches its midpoint. Take “2-((3-cyano-4-(thiophen-2-yl)-5,6,7,8-tetrahydroquinolin-2-yl)oxy)-2-phenylacetic acid [Formula Ia-xxvii]”: the 50% inhibitory concentration (IC50) was determined as 249 nM.

In the case of `COc1ccc(-c2cc(-c3cccs3)nc(SC(CO)c3ccccc3)c2C#N)cc1` (stereo not shown) [Formula IIb-i, 2-((2-hydroxy-1-phenylethyl)thio)-4-(4-methoxyphenyl)-6-(thiophen-2-yl)nicotinonitrile], the half-inhibitory concentration (IC50) is 625 nM.

Consider `N#Cc1c(SC(CO)c2ccccc2)nc2c(c1-c1cccs1)CCCC2` (stereo not shown) [Formula IIb-ii, 2-((2-hydroxy-1-phenylethyl)thio)-4-(thiophen-2-yl)-5,6,7,8-tetrahydroquinoline-3-carbonitrile], for which the half-inhibitory concentration (IC50) came to 4090 nM.

`N#Cc1c(-c2ccco2)cc(-c2cccs2)nc1SC(CO)c1ccccc1` (stereo not shown) [Formula IIb-iv, 4-(furan-2-yl)-2-((2-hydroxy-1-phenylethyl)thio)-6-(thiophen-2-yl)nicotinonitrile]: the IC50 was 2180 nM.

For the molecule `CN1CCCc2c1nc(SC(C(=O)O)c1ccccc1)c(C#N)c2-c1cccs1` (stereo not shown) [Formula Ia-vi, 2-((3-cyano-8-methyl-4-(thiophen-2-yl)-5,6,7,8-tetrahydro-1,8-naphthyridin-2-yl)thio)-2-phenylacetic acid], the half-inhibitory concentration (IC50) was determined as 3550 nM.

With `COc1ccc(-c2cc(SC(C(=O)O)c3ccccc3)nc(-c3cccs3)c2)cc1` (stereo not shown) [Formula Ia-xix, 2-((4-(4-methoxyphenyl)-6-(thiophen-2-yl)pyridin-2-yl)thio)-2-phenylacetic acid], the IC50 came to 9060 nM.

As for `Cc1cc(C(F)(F)F)c(C#N)c(SC(C(=O)O)c2ccccc2)n1` (stereo not shown) [Formula Ia-xvi, 2-((3-cyano-6-methyl-4-(trifluoromethyl)pyridin-2-yl)thio)-2-phenylacetic acid], the IC50 stood at 7730 nM.

Turning to `N#Cc1c(SC(C(=O)O)c2ccccc2)nc2c(c1-c1ccccc1)CCCC2` (stereo not shown) [Formula Ia-xvii, 2-((3-cyano-4-phenyl-5,6,7,8-tetrahydroquinolin-2-yl)thio)-2-phenylacetic acid], the 50% inhibitory concentration (IC50) was 906 nM.

As for `COc1ccc(-c2cc(-c3ccco3)nc(SC(C(=O)O)c3ccccc3)c2C#N)cc1` (stereo not shown) [Formula Ia-xx, 2-((3-cyano-6-(furan-2-yl)-4-(4-methoxyphenyl)pyridin-2-yl)thio)-2-phenylacetic acid], the 50% inhibitory concentration (IC50) was 345 nM.

As to `Cc1ccc(-c2cc(-c3cccs3)nc(SC(C(=O)O)c3ccccc3)c2C#N)cc1` (stereo not shown) [Formula Ia-xxi, 2-((3-cyano-6-(thiophen-2-yl)-4-(p-tolyl)pyridin-2-yl)thio)-2-phenylacetic acid], the half-inhibitory concentration (IC50) stood at 353 nM.

`N#Cc1c(-c2ccc(F)cc2)cc(-c2cccs2)nc1SC(C(=O)O)c1ccccc1` (stereo not shown) [Formula Ia-xxii, 2-((3-cyano-4-(4-fluorophenyl)-6-(thiophen-2-yl)pyridin-2-yl)thio)-2-phenylacetic acid]: the IC50 was found to be 563 nM.

Turning to `N#Cc1c(-c2ccc(Br)cc2)cc(-c2cccs2)nc1SC(C(=O)O)c1ccccc1` (stereo not shown) [Formula Ia-xxiii, 2-((4-(4-bromophenyl)-3-cyano-6-(thiophen-2-yl)pyridin-2-yl)thio)-2-phenylacetic acid], the concentration for half-maximal inhibition (IC50) was 212 nM.

As to `N#Cc1c(-c2cccs2)cc(-c2ccco2)nc1SC(C(=O)O)c1ccccc1` (stereo not shown) [Formula Ia-xxiv, 2-((3-cyano-6-(furan-2-yl)-4-(thiophen-2-yl)pyridin-2-yl)thio)-2-phenylacetic acid], the IC50 was determined as 958 nM.

For the molecule `CCC(Sc1nc(-c2cccs2)cc(-c2ccc(OC)cc2)c1C#N)C(=O)O` (stereo not shown) [Formula Ia-xxix, 2-((3-cyano-4-(4-methoxyphenyl)-6-(thiophen-2-yl)pyridin-2-yl)thio)butanoic acid], the IC50 was 113 nM.

Regarding `N#Cc1c(-c2ccco2)cc(-c2ccco2)nc1SC(C(=O)O)c1ccccc1` (stereo not shown) [Formula Ia-xxv, 2-((3-cyano-4,6-di(furan-2-yl)pyridin-2-yl)thio)-2-phenylacetic acid], the IC50 stood at 4040 nM.

As for `COc1ccc(-c2c(C#N)c(SC(C(=O)O)c3ccccc3)nc3c2CCCC3)cc1` (stereo not shown) [Formula Ia-xxvi, 2-((3-cyano-4-(4-methoxyphenyl)-5,6,7,8-tetrahydroquinolin-2-yl)thio)-2-phenylacetic acid], the IC50 is 560 nM.

On to `N#Cc1c(SC(C(N)=O)c2ccccc2)nc2c(c1-c1cccs1)CCCC2` (stereo not shown) [Formula Ib-i, 2-((3-cyano-4-(thiophen-2-yl)-5,6,7,8-tetrahydroquinolin-2-yl)thio)-2-phenylacetamide], for which the half-maximal inhibitory concentration (IC50) was found to be 712 nM.

For `COc1ccc(-c2cc(-c3cccs3)nc(SC(C(N)=O)c3ccccc3)c2C#N)cc1` (stereo not shown) [Formula Ib-ii, 2-((3-cyano-4-(4-methoxyphenyl)-6-(thiophen-2-yl)pyridin-2-yl)thio)-2-phenylacetamide], the half-inhibitory concentration (IC50) was over 33000 nM.

Take `COc1ccc(-c2cc(-c3cccs3)nc(SC(C(=O)NO)c3ccccc3)c2C#N)cc1` (stereo not shown) [Formula Ib-iii, 2-((3-cyano-4-(4-methoxyphenyl)-6-(thiophen-2-yl)pyridin-2-yl)thio)-N-hydroxy-2-phenylacetamide]: the IC50 was 882 nM.

With `CO[C@H]1CCCC[C@@H](c2ccccc2)OC(=O)[C@@H](C)[C@@]2(O)O[C@H]([C@@H](C)[C@H](O)[C@H]2OC)[C@@H](C)/C=C/[C@H]1OC` [Soraphen, reference compound], the IC50 is 45.8 nM.

The experiment is the same for the next values; noted with them: Table 1B; racemate vs single enantiomers; read-out: ACCase Inhibitory Activity of Racemic Mixtures and Single Enantiomers IC50.
In the case of `N#Cc1c(C(F)(F)F)cc(-c2cccs2)nc1SC(C(=O)O)c1ccccc1` (single isomer, unassigned) [Formula Ia-ii-e1, 2-((3-cyano-6-(thiophen-2-yl)-4-(trifluoromethyl)-pyridin-2-yl)thio)-2-phenylacetic acid], the half-maximal inhibitory concentration (IC50) was 12900 nM.

For `N#Cc1c(-c2cccs2)cc(-c2cccs2)nc1SC(C(=O)O)c1ccccc1` (single isomer, unassigned) [Formula Ia-iii-e1, 2-((3-cyano-4,6-di(thiophen-2-yl)pyridin-2-yl)thio)-2-phenylacetic acid], the half-maximal inhibitory concentration (IC50) is 547 nM.

Turning to `N#Cc1c(-c2cccs2)cc(-c2cccs2)nc1SC(C(=O)O)c1ccccc1` (single isomer, unassigned) [Formula Ia-iii-e2, 2-((3-cyano-4,6-di(thiophen-2-yl)pyridin-2-yl)thio)-2-phenylacetic acid], the IC50 came to 2390 nM.

Turning to `COc1ccc(-c2cc(-c3cccs3)nc(SC(C(=O)O)c3ccccc3)c2C#N)cc1` (single isomer, unassigned) [Formula Ia-xiv-e1, 2-((3-cyano-4-(4-methoxyphenyl)-6-(thiophen-2-yl)pyridin-2-yl)thio)-2-phenylacetic acid], the IC50 is 115 nM and 129 nM.

`COc1ccc(-c2cc(-c3cccs3)nc(SC(C(=O)O)c3ccccc3)c2C#N)cc1` (single isomer, unassigned) [Formula Ia-xiv-e2, 2-((3-cyano-4-(4-methoxyphenyl)-6-(thiophen-2-yl)pyridin-2-yl)thio)-2-phenylacetic acid]: the IC50 is 440 nM and 523 nM.

(Values after patent US10548313B2, “Acetyl-CoA carboxylase modulators” (Monsanto Technology LLC, priority 2013, dated 2020).)
